Measurements as given in ChEMBL document CHEMBL4342418, “1,2,3-Triazole-containing hybrids as potential anticancer agents: Current developments, action mechanisms and structure-activity relationships” (Eur J Med Chem, 2019).
Converted amounts (≈) assume the structure as drawn. Each block holds one compound with its values, some of them ahead of it.

Assays:
K562 [1] = assay: Antiproliferative activity against human K562 cells assessed as reduction in cell viability after 24 hrs by MTT assay; assay type: functional, cell-based; conditions: K562, 24 h
PBMC = assay: Cytotoxicity against human PBMC cells assessed as reduction in cell viability after 24 hrs by MTT assay; assay type: cell-based
K562-Lucena 1 = assay: Antiproliferative activity against human K562-Lucena 1 cells assessed as reduction in cell viability after 24 hrs by MTT assay; assay type: functional, cell-based; conditions: K562-Lucena 1, 24 h
HL-60 = assay: Antiproliferative activity against human HL60 cells assessed as reduction in cell viability after 24 hrs by MTT assay; assay type: functional, cell-based; conditions: HL-60, 24 h
A549 = assay: cells; assay type: functional, cell-based; conditions: Homo sapiens
Description: Antiproliferative activity against human A549 cells by MTT assay

NIH3T3 = assay: Antiproliferative activity against mouse NIH/3T3 cells by MTT assay; assay type: functional, cell-based
DU-145 = assay: Antiproliferative activity against human DU145 cells by MTT assay; assay type: functional, cell-based
HepG2 [2] = assay: Antiproliferative activity against human HepG2 cells by MTT assay; assay type: functional, cell-based
PC-3 = assay: Antiproliferative activity against human PC3 cells by MTT assay; assay type: functional, cell-based
HeLa [3] = assay: Antiproliferative activity against human HeLa cells by MTT assay; assay type: functional, cell-based
MCF7 = assay: cells; assay type: functional, cell-based; conditions: Homo sapiens
Description: Antiproliferative activity against human MCF7 cells by MTT assay

NCI-H460 = assay: Antiproliferative activity against human H460 cells by MTT assay; assay type: functional, cell-based
K562 [4] = assay: Antiproliferative activity against human K562 cells by MTT assay; assay type: functional, cell-based
LoVo = assay: Antiproliferative activity against human LoVo cells by MTT assay; assay type: functional, cell-based
HCT-116 = assay: Antiproliferative activity against human HCT116 cells by MTT assay; assay type: functional, cell-based
HepG2 [5] = assay: Antiproliferative activity against human HepG2 cells assessed as reduction in cell viability after 24 hrs by MTT assay; assay type: functional, cell-based; conditions: HepG2, 24 h
SK-BR-3 = assay: Antiproliferative activity against human SKBR3 cells assessed as reduction in cell viability after 24 hrs by MTT assay; assay type: functional, cell-based; conditions: SK-BR-3, 24 h
HeLa [6] = assay: Antiproliferative activity against human HeLa cells assessed as reduction in cell viability after 24 hrs by MTT assay; assay type: functional, cell-based

Structure (SMILES): COc1cc([C@@H]2c3cc4c(cc3[C@H](O)[C@H]3COC(=O)[C@H]23)OCO4)cc(OC)c1OC [PODOFILOX]
- IC50 (A549): 3.06 to 34.4 µM
- IC50 (NIH3T3): 3.06 to 6.63 µM
- IC50 (DU-145): 3.06 to 6.63 µM
- IC50 (HepG2 [2]): 3.06 to 6.63 µM
- IC50 (PC-3): 3.06 to 34.4 µM
- IC50 (HeLa [3]): 3.06 to 6.63 µM
- IC50 (MCF7): 3.06 to 34.4 µM

Structure (SMILES): O=C(CCCCCCC(=O)Nc1ccccc1)NO [VORINOSTAT]
- IC50 (K562 [4]): 4.95 to 7.11 µM
- IC50 (HepG2 [2]): 4.95 to 7.11 µM
- IC50 (LoVo): 4.95 to 7.11 µM
- IC50 (HCT-116): 4.95 to 7.11 µM

Structure (SMILES): COc1ccc(-c2nnn(Cc3cc(F)ccc3F)c2-c2nc3cc(C)ccc3o2)cc1
- IC50 (HepG2 [5]): 11.2 µg/mL (≈ 25.9 µM)
- IC50 (SK-BR-3): 7.1 µg/mL (≈ 16.4 µM)
- IC50 (HeLa [6]): 6.8 µg/mL (≈ 15.7 µM)

Second part, led by results:

- IC50 (K562 [1]): 14.3 to 99.2 µM
- IC50 (K562-Lucena 1): 14.3 to 99.2 µM
- IC50 (HL-60): 14.3 to 99.2 µM
Structure (SMILES): COc1ccc(-c2cn(C3=CC(=O)c4ccccc4C3=O)nn2)cc1
- IC50 (PBMC): 14.3 to 99.2 µM

- IC50 (A549): 10 µM
- IC50 (NCI-H460): 8 µM
Structure (SMILES): COc1ccc2c(c1)OCC(=O)N2Cc1cn(Cc2ccccc2)nn1
